Measurements taken from patent US20040229816A1, “Anti-angiogenic and anti-tumoral properties of beta and gamma secretase inhibitors” (priority 2003, published 2004).
pIC50: −log10 of the molar value. “Also recorded” adds a separate entry of the source. Read-outs that look alike come from different tables or passages of the source. Numbered stars: 1 amine (or outer) side, 2 acyl side, 3 side chain; on linkers, the order of the positions; unused ones are H or OH. Square brackets hold non-standard residues; d marks the D form. Peptide text beside a SMILES is read from it. LeuΨ(S-CHOHCH2)Ala = CC(C)C[C@H](N[*:1])[C@@H](O)C[C@@H](C)C(=O)[*:2]; Sta = CC(C)C[C@H](N)[C@@H](O)CC(=O)O

Legend:
[1] = tested on: human brain endothelial cells; assay: viability of human brain endothelial cells (LDH activity in culture medium); format: cell-based; conditions: 24 hours; for cellular toxicity / viability of human brain endothelial cells versus control: doses employed; for LDH activity in the culture medium, ANOVA main effect: various doses
Procedure: (§1) Primary cultures of human brain endothelial cells were plated at a density of 10^4 cells/[…] of EBM 4% in 96 wells culture plates and treated with various doses of γ-secretase and β-secretase inhibitors as indicated in the figure legends. Following 24 hours in culture, the EBM covering the cells was removed and assayed for Lacticodehydrogenase (LDH) activity using the cytotoxicity detection kit (Roche Diagnostic Corporation, Ind.). Cells were covered with […] of EBM 4% and cellular proliferation measured using the Quick cell proliferation assay kit (Biovision Research Products, Calif.).

[2] = tested on: human brain endothelial cells; assay: proliferation of human brain endothelial cells (Quick cell proliferation assay kit); format: cell-based; conditions: various doses, 24 hours
Procedure: as §1

γ-secretase [3] = conditions: 7PA2 cells; cited from earlier work
Aβ = conditions: cited from earlier work
explants of rat aortae = assay: rat aortic ring model of angiogenesis (microvessel outgrowths); format: cell-based, Sprague Dawley rats
Procedure: Twenty four well tissue culture grade plates (Nalgene International, NY) were covered with […] of Matrigel (Becton-Dickinson, Bedford, Mass.) and allowed to gel for 30 min at 37° C., 5% CO2. Briefly, thoracic aortae were excised from 9 month-old Sprague Dawley rats. After removing the fibroadipose tissue, arteries were sectioned into 1 mm long cross sections, rinsed 5 times with EBM (Clonetics Corp.) containing 4% fetal bovine serum (FBS) and placed on the Matrigel coated wells. Artery rings were covered with an additional […] of Matrigel. After polymerization the Matrigel was covered with 1 mL of EBM (4% FBS) containing various doses of Z-VVL-CHO, OM99-2, P10-P4′statV, DAPT, or L-685,458 as indicated in the figure legends (the culture medium was changed every 3 days). Pictures were taken at day 4, 5 and 6 using a 4×objective. Microvessel outgrowth area was quantified using the Image Pro Plus software. Briefly, ring cultures were photographed using a digital video camera linked to an Olympus BX60 microscope. The outgrowth area was delineated and measured with the Image Pro Plus software by using a strategy of microvessel outgrowth detection based on difference in color intensities between the outgrowths, the Matrigel and the artery ring. The artery rings were manually selected and excluded from the area of measurement and the color intensity threshold was adjusted to selectively measure the area occupied by the microvessel outgrowths. Results were expressed as a percentage of the area occupied by microvessel outgrowths at day 4 in control condition.

BACE = BACE (Homo sapiens, UniProt P56817); conditions: cited from earlier work
[4] = tested on: Human middle cerebral artery endothelial cells; assay: capillary morphogenesis assay; format: cell-based
Procedure: Two hundred μl of Matrigel were placed into each well of a 24-well culture plate at 4° C. and allowed to polymerize by incubation at 37° C. Human middle cerebral artery endothelial cells (5×104) were seeded on the Matrigel in 1 ml of EBM containing 4% fetal calf serum. The cells were incubated at 37° C. for 20 hours in a humidified 5% CO2 atmosphere in the presence or absence of various doses of γ-secretase and β-secretase inhibitors as indicated in the figure legends. The experiments were performed in quadruplicate for each treatment condition. For each culture, 2 randomly chosen fields were photographed using a 4×objective. An experimenter unaware of the different treatments measured the total length of tube structures in each photograph using the Image Pro Plus software (Media Cybernetic, Inc., Md.). Capillary network lengths for the different treatment conditions were expressed as the percentage of capillary network lengths obtained in the control condition.

APP [5] = assay: α-sAPP secretion by human brain endothelial cells (immunoprecipitation, immunoblotting); format: cell-based; conditions: 5 μM, 24 hours
Procedure: (§2) Confluent human brain endothelial cells (grown on 75 cm2 flasks with EBM 4% FBS medium) were treated for 24 hours with 5 μM of Z-VVL-CHO, 5 μM of L-685,458, 5 μM of OM99-2, 5 AM of DAPT or went untreated (control). Experiments were done in quadriplicate for each treatment condition. 6E10 (Signet), a mAb that recognizes residues 1-17 of human Aβ (Van Nostrand et al., Nature, 341, 546-549, 1989) was used to immunoprecipitate soluble APP generated following cleavage by α-secretase from cell culture medium. Immunoprecipitated material was resolved on a 4-20% gradient SDS-PAGE, transferred to PVDF membranes and immunodetected with mAb 22C11 (Roche Diagnostics) that recognizes the amino acids 66-81 of the N-terminal portion of APP (Hibich, C., J. Biol. Chem., 268, 26571-26577, 1993). Human brain endothelial cells were lysed on ice using MPERTM reagent (Pierce) supplemented with 1 mM PMSF and 1 mM of sodium-orthovanadate. Samples were sonicated and centrifuged at 10,000 g for 30 min at 4° C. The protein content of the lysates was determined using the BCA Protein assay kit (Pierce). Total lysates ([…] of protein/sample) were separated on a 4-20% gradient SDS-PAGE and transferred to PVDF membranes and immunoprobed with mAb 22C11 in order to detect full length APP and also immunoprobed with an Anti-APP-CT20 (Calbiochem) antibody which recognizes the amino acid residues 751-770 of the carboxyl terminal region of APP (Pinnix et al. 2001; J. Biol. Chem., 276, 481).

APP [6] = assay: carboxyl-terminal APP fragments in human brain endothelial cell lysates (immunoblotting); format: cell-based; conditions: 5 μM, 24 hours
Procedure: as §2

γ-secretase [7] = conditions: cited from earlier work
[8] = tested on: aspartyl protease cathepsin; conditions: cited from earlier work
presenilin = conditions: cited from earlier work
Notch = conditions: cited from earlier work
[9] = tested on: human lung adenocarcinoma (A-549) xenografts; assay: human lung adenocarcinoma A-549 xenografts in nude mice; format: in vivo
Procedure: FIG. 9a: Anti-tumoral effect of the γ-secretase inhibitor DAPT and of the β-secretase inhibitor Z-VLL-CHO on human lung adenocarcinoma (A-549) xenografts growth rates. A-549 cells (8.5×10^6) were injected subcutaneously into both flanks of 8-10 weeks-old nude mice. Mice were injected intraperitoneally with either the vehicle, 5 mg/Kg of body weight of the β-secretase inhibitor Z-VLL-CHO or 10 mg/Kg of body weight of the γ-secretase inhibitor DAPT, starting when tumors had reached a mean tumor volume of approximately 200 mm^3 (day 21 post implantation). Injections were given everyday for 12 days. […] FIG. 9b: Representative pictures of sections of lung adenocarcinoma tumors immunostained with CD31 antibodies. FIG. 9c: Histogram depicting the quantification of the vascularization of lung adenocarcinoma tumors.
FIG. 10: Anti-tumoral effect of the γ-secretase inhibitor JLK-6 on human lung adenocarcinoma (A-549) xenografts growth rates. A-549 cells (8.5×10^6) were injected subcutaneously into both flanks of 8-10 weeks-old nude mice. Mice were injected intraperitoneally everyday from Day 16 (when the tumors reached a volume of approximately 150 mm^3) with either the vehicle or 5 mg/Kg of body weight of the γ-secretase inhibitor JLK-6.
The human glioblastoma U-87 MG and human lung adenocarcinoma A-549 cell lines were obtained from American Tissue Culture Type Collection (Manassas, Va.) and were grown in DMEM containing 1×penicilline-streptomycine-fungizone and 10% fetal bovine serum at 37° C. in a humidified atmosphere of 5% CO2. Tumor cells (6×106) in 100 μl of PBS were inoculated subcutaneously into both flanks of 8-10-week-old female nude mice (Harland). Tumor volume (in mm^3) was determined using the formula (length×width^2)/2, where length was the longest axis and width the measurement at right angles to the length (Clarke et al. 2000). When the tumor volumes reached approximately 150 mm^3, animals were treated intraperitoneally everyday with 100 μl of 50% DMSO/H2O (vehicle group), 5 mg/Kg of body weight of Z-VLL-CHO (β-secretase inhibitor), 5 mg/Kg of JLK-6 (γ-secretase inhibitor) or with 10 mg/Kg of body weight of DAPT. Data were expressed as mean tumor volume±S.E for each treatment group.
At the completion of the study, animals were humanely euthanized and tumors were harvested and fixed in paraformaldehyde 4% overnight at 4° C. After paraffin embedding in an automated tissue processing Sakura Tissue-Tek (E150) (Torrence, Calif.), samples were cut into 5 μm sections, deparafinized, and rehydrated through a graded series of alcohol. Sections were treated with 0.02 mg/ml Proteinase K (Gentra Systems, MN) for 15 minutes at 37° C. to allow for proper antigen retrieval, washed several times in PBS and incubated for 15 minutes in a 0.3% solution of hydrogen peroxide. Sections were blocked and then immunostained with a 1:40 dilution of a PECAM-1 antibody (BD-Pharmingen, CA) overnight at 4° C. in a humidification chamber. Vector ABC Kits (Vector Laboratories Inc, CA) where used following the manufacturer's instruction for the immunostaining. Quantification of tumor vascularization was performed using the stereological dissector method. Briefly, forty consecutive sections were taken from a randomly chosen starting point in each tumor. Five sections for each tumor were selected for stereology by taking one section every eight sections. A dissector counting frame was used with inclusion and exclusion lines throughout the reference area. Vessel count was performed at ×400 magnification with the use of an Olympus microscope connected to a digital video camera. Microvessels were counted in the dissector frame by an experimenter unaware of the different treatment conditions. For each tumor an average vessel count per area of dissector frame was determined. A vascular index was calculated by expressing the vessel count as a percentage of the vessel count in the vehicle treatment condition.

[10] = angiogenesis in vitro (test not specified); format: cell-based
presenilin 1 and 2 = conditions: cited from earlier work

Chain of BACE (P56817 46-501, species assumed): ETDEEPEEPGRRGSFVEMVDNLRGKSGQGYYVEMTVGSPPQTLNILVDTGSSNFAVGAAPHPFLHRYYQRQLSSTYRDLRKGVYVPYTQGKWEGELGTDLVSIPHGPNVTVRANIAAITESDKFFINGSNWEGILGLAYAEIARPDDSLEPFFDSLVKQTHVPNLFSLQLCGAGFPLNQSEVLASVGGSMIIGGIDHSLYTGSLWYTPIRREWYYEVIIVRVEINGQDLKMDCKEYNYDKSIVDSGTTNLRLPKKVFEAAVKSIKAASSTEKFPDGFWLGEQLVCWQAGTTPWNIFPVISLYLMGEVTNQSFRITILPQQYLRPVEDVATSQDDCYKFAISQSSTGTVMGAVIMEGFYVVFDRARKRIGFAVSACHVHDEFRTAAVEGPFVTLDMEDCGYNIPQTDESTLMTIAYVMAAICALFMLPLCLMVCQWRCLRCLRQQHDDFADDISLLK

COC(=O)C(NC(=O)C(C)NC(=O)Cc1cc(F)cc(F)c1)c1ccccc1 [DAPM, N-[N-3,5-difluorophenacetyl]-L-alanyl-S-phenylglycine methyl ester]
cellular toxicity / viability of human brain endothelial cells versus control [1]: without inducing cellular toxicity | proliferation of human brain endothelial cells, dose dependence [2]: dose dependently inhibited | pIC50 (γ-secretase [3]): ~8.00 | early Aβ oligomerization (Aβ dimer and trimer formation) (Aβ): prevents

H-Lys-Thr-Glu-Glu-Ile-Ser-Glu-Val-Asn-Stat-Val-Ala-Glu-Phe-OH [P10-P4′statV, H-Lys-Thr-Glu-Glu-Ile-Ser-Glu-Val-Asn-Stat-Val-Ala-Glu-Phe-OH [Stat=(3S,4S)-Statine]]
sprouting of microvessel outgrowths, overall / dose dependence (explants of rat aortae; day 4, 5 and 6): dose dependently and potently inhibited | pIC50 (BACE): 7.52

CC(C)C[C@H](NC(=O)[C@H](CC(N)=O)NC(=O)[C@@H](NC(=O)[C@@H](N)CCC(=O)O)C(C)C)[C@@H](O)CC(=O)N[C@H](C(=O)N[C@@H](C)C(=O)N[C@@H](CCC(=O)O)C(=O)N[C@@H](Cc1ccccc1)C(N)=O)C(C)C [GL189, H-Glu-Val-Asn-Statine-Val-Ala-Glu-Phe-NH] (H-EVN[Sta]VAEF-NH2)
cellular toxicity / viability of human brain endothelial cells versus control [1]: without affecting their viability

CC(C)C[C@H](NC(=O)[C@H](CC(N)=O)NC(=O)[C@@H](NC(=O)[C@@H](N)CCC(=O)O)C(C)C)[C@@H](O)C[C@@H](C)C(=O)N[C@@H](C)C(=O)N[C@@H](CCC(=O)O)C(=O)N[C@@H](Cc1ccccc1)C(=O)O [OM99-2, Glu-Val-Asn-Leu-ψ-Ala-Ala-Glu-Phe [ψ denotes replacement of CONH by (S)—CH(OH)CH2]] (H-EVN[LeuΨ(S-CHOHCH2)Ala]AEF-OH)
cellular toxicity / viability of human brain endothelial cells versus control [1]: without affecting their viability | LDH activity in the culture medium, ANOVA main effect [1]: significant main effect

CC(C)CC(NC(=O)C(Cc1ccccc1)CC(O)C(Cc1ccccc1)NC(=O)OC(C)(C)C)C(=O)NC(Cc1ccccc1)C(N)=O [L-685,458, {1S-Benzyl-4R-[1-(1S-carbamoyl-2-phenethylcarbamoyl)-1S-3-methylbutylcarba-moyl]-2R-hydroxy-5-phenyl-pentyl}carbamic acid tert-butyl ester]
cellular toxicity / viability of human brain endothelial cells versus control [1]: without inducing cellular toxicity | LDH activity in the culture medium, ANOVA main effect [1]: no main effect | proliferation of human brain endothelial cells, dose dependence [2]: dose dependently inhibited | capillary network length / capillary morphogenesis versus control ([4]; 5 μM, 20 hours): potent angiogenic effect | capillary morphogenesis ([4]; low dose): stimulated capillary morphogenesis | secretion of α-sAPP (APP [5]): not | accumulation of carboxyl-terminal APP fragments (APP CTF) (APP [6]): stimulates | accumulation of carboxyl-terminal APP fragments (APP CTF) (APP [6]; listed as L-685-485): promoted the accumulation | area covered by microvessel outgrowths versus control (explants of rat aortae; 1 μM): inhibited | area covered by microvessel outgrowths versus control (explants of rat aortae; 5 μM): inhibited | pIC50 (γ-secretase [7]; read-out: Ab40 IC50): 7.32 | pIC50 (γ-secretase [7]; read-out: Ab42 IC50): 7.17 | pIC50 (γ-secretase [7]; read-out: Abtotal IC50): 7.77 | selectivity for γ-secretase than for the aspartyl protease cathepsin [8]: over a hundred-fold greater | binding to presenilin (presenilin): binds to presenilin | Notch intracellular domain production (Notch): blocks

COc1oc(=O)c2cc(N)ccc2c1Cl [JLK-6, 7-amino-4-chloro-3-methoxyisocoumarin]
cellular toxicity / viability of human brain endothelial cells versus control [1]: without inducing cellular toxicity | proliferation of human brain endothelial cells, dose dependence [2]: dose dependently inhibited | vascularization of A-549 tumors ([9]; 5 mg/Kg intraperitoneally): inhibited | growth (tumor volume) of A-549 xenografts versus vehicle ([9]; 5 mg/Kg intraperitoneally everyday from Day 16): inhibited; also recorded: significantly inhibits the growth; also recorded: inhibit the growth | angiogenesis in vitro [10]: appears to reduce angiogenesis | processing of Notch (Notch): does not affect | proteolysis of presenilin 1 and 2 (presenilin 1 and 2): does not affect
